Experimental data taken from patent publication US5840740A, “Aminosterol compounds and a method of treating infection using the aminosterol compounds” (priority 1995, dated 1998).
Where a name gives a salt, the structure may show the parent alone.

Key:
Xenopus tadpole = settings: stage 59-60, 10 μg/ml; in words
[1] = system: chick embryo vitelline capillaries; assay: Chick embryo vitelline capillary regression assay; type: in vivo; parameters: key to vascular reactivity (capillary regression): +: Vascular reactivity; 0: No vascular reactivity; +/-: Equivocal reactivity; settings: for vascular reactivity (capillary regression): 60 min; for Chick embryo diss. assay, Minimum Effective Concentration: Table II; for effect on chick embryo vessels / blood: in words
Description: Using the chick embryo vitelline capillaries assay, compounds were tested for their ability to induce capillary regression. Each compound was applied in 0.1 ml of 15% Ficol 400 and PBS onto the embryo, and vascular regression was assessed after 60 minutes.
The 3-day chick embryo consists of an embryonic disc from which numerous vessels emerge and return, forming a "figure 8"-shaped structure--the embryo in the center with vascular loops extending outward over both poles. […] Following a lag period of around 15 minutes, the constriction of continuity between capillary and secondary vessels, generally on the "avenous" side, was observed. Continued pulsatile blood flow progressed, resulting in a "swelling" of the blind tube, followed by a pinching off of the remaining connection and formation of an enclosed vascular sac resembling a "blood island." This process progressed until only the largest vessels remained intact.

SMILES	pharmacological response in tadpole (Xenopus tadpole)	vascular reactivity (capillary regression) ([1]; 1 μg applied)	Chick embryo diss. assay, Minimum Effective Concentration [1] [µg]	also measured
CC(COS(=O)(=O)O)C(=O)CC[C@@H](C)[C@H]1CC[C@H]2[C@@H]3[C@H](O)C[C@H]4C[C@@H](NCCCNCCCCN)CC[C@]4(C)[C@H]3CC[C@]12C (single isomer, unassigned) [Compound 1360]	Swelling and lysis of certain erythrocytes occurred, resulting in accumulation of nuclei within certain small vessels of the tail. Subsequent tissue breakdown occurred in areas of tail surrounding these nuclear plugs.	0	> 10	effect on chick embryo vessels / blood [1]: Within 20 minutes, the blood circulating through the embryonic vessels exhibited a brighter red color
CC(C)CCC[C@@H](C)[C@H]1CC[C@H]2[C@@H]3CC[C@H]4C[C@@H](NCCCNCCCCN)CC[C@]4(C)[C@H]3CC[C@]12C [Compound 303]		0	> 10	
C[C@H](CCC(=O)O)[C@H]1CC[C@H]2[C@@H]3CC[C@H]4C[C@H](NCCCNCCCCN)CC[C@]4(C)[C@H]3CC[C@]12C [Compound 318]		0	> 10	
CC(C)CCC[C@@H](C)[C@H]1CC[C@H]2[C@@H]3CC[C@H]4C[C@H](NCCCNCCCCNCCCN)CC[C@]4(C)[C@H]3CC[C@]12C [Compound 354]			> 10	
CC(C)CCC[C@@H](C)[C@H]1CC[C@H]2[C@@H]3[C@H](O)C[C@H]4C[C@@H](NCCCNCCCCN)CC[C@]4(C)[C@H]3CC[C@]12C [Compound 371]	effects like those produced by compound 1436	+/-	1 to 10	vascular reactivity (capillary regression) ([1]; 0.001 μg applied): 0; vascular reactivity (capillary regression) ([1]; 0.01 μg applied): 0; vascular reactivity (capillary regression) ([1]; 0.1 μg applied): 0; vascular reactivity (capillary regression) ([1]; 10 μg applied): +
C[C@H](CCC(=O)O)[C@H]1CC[C@H]2[C@@H]3[C@H](O)C[C@H]4C[C@@H](NCCCNCCCCN)CC[C@]4(C)[C@H]3CC[C@]12C [Compound 381]		0	> 10	
C[C@H](CCC(=O)O)[C@H]1CC[C@H]2[C@@H]3[C@H](O)C[C@H]4C[C@H](NCCCNCCCCN)CC[C@]4(C)[C@H]3CC[C@]12C [Compound 382]		+	0.01	vascular reactivity (capillary regression) ([1]; 0.001 μg applied): 0; vascular reactivity (capillary regression) ([1]; 0.01 μg applied): 0; vascular reactivity (capillary regression) ([1]; 0.1 μg applied): 0; vascular reactivity (capillary regression) ([1]; 10 μg applied): +
CC(C)CCC[C@@H](C)[C@H]1CC[C@H]2[C@@H]3CC[C@H]4C[C@H](NCCCN5CCCCN=C5N)CC[C@]4(C)[C@H]3CC[C@]12C [Compound 393]			> 10	
COC(=O)CC[C@@H](C)[C@H]1CC[C@H]2[C@@H]3[C@H](O)C[C@H]4C[C@H](NCCCNCCCCN)CC[C@]4(C)[C@H]3CC[C@]12C [Compound 394]			> 10	
COC(=O)CC[C@@H](C)[C@H]1CC[C@H]2[C@@H]3[C@H](O)C[C@H]4C[C@H](NCCCNCCCCNCCCN)CC[C@]4(C)[C@H]3CC[C@]12C [Compound 395]			> 10	
COC(=O)CC[C@@H](C)[C@H]1CC[C@H]2[C@@H]3[C@H](O)C[C@H]4C[C@@H](NCCCNCCCCNCCCN)CC[C@]4(C)[C@H]3CC[C@]12C [Compound 396]		+	10	vascular reactivity (capillary regression) ([1]; 0.001 μg applied): 0; vascular reactivity (capillary regression) ([1]; 0.01 μg applied): 0; vascular reactivity (capillary regression) ([1]; 0.1 μg applied): 0
C[C@H](CCC(=O)O)[C@H]1CC[C@H]2[C@@H]3[C@H](O)C[C@H]4C[C@@H](NCCCNCCCCNCCCN)CC[C@]4(C)[C@H]3CC[C@]12C [Compound 397]			1	
C[C@H](CCCOS(=O)(=O)O)[C@H]1CC[C@H]2[C@@H]3CC[C@H]4C[C@@H](NCCCNCCCCN)CC[C@]4(C)[C@H]3CC[C@]12C [Compound 399, 3β-N-1-{N[3-(4-Aminobutyl)]-1,3-diaminopropane}-24-hydroxy-5α-cholane 24-potassium sulfate]			> 10	
COC(=O)CC[C@@H](C)[C@H]1CC[C@H]2[C@@H]3[C@H](O)C[C@@H]4C[C@@H](NCCN)CC[C@]4(C)[C@H]3CC[C@]12C [Compound 409]	functionally similar to compound 1437	0	> 1	
COC(=O)CC[C@@H](C)[C@H]1CC[C@H]2[C@@H]3[C@H](O)C[C@@H]4C[C@H](NCCN)CC[C@]4(C)[C@H]3CC[C@]12C [Compound 410]	functionally similar to compound 1437	+	0.01	vascular reactivity (capillary regression) ([1]; 0.001 μg applied): 0; vascular reactivity (capillary regression) ([1]; 0.01 μg applied): +/-; vascular reactivity (capillary regression) ([1]; 0.1 μg applied): +/-
COC(=O)CC[C@@H](C)[C@H]1CC[C@H]2[C@@H]3[C@H](O)C[C@@H]4C[C@@H](NCCCNCCCCNCCCN)CC[C@]4(C)[C@H]3CC[C@]12C [Compound 411]		+/-	> 1	
C[C@H](CCC(=O)O)[C@H]1CC[C@H]2[C@@H]3[C@H](O)C[C@@H]4C[C@H](NCCCNCCCCNCCCN)CC[C@]4(C)[C@H]3CC[C@]12C [Compound 412]	pharmacologic activity similar to that seen for FX 3	+	1	vascular reactivity (capillary regression) ([1]; 0.001 μg applied): 0; vascular reactivity (capillary regression) ([1]; 0.01 μg applied): 0; vascular reactivity (capillary regression) ([1]; 0.1 μg applied): 0
C[C@H](CCC(=O)O)[C@H]1CC[C@H]2[C@@H]3[C@H](O)C[C@@H]4C[C@@H](NCCCNCCCCNCCCN)CC[C@]4(C)[C@H]3CC[C@]12C [Compound 413]	effects like those produced by compound 1436	0	> 1	
C[C@H](CCC(=O)O)[C@H]1CC[C@H]2[C@@H]3[C@H](O)C[C@@H]4C[C@H](NCCN)CC[C@]4(C)[C@H]3CC[C@]12C [Compound 414]	pharmacologic activity similar to Fraction 1	0	> 1	
C[C@H](CCC(=O)O)[C@H]1CC[C@H]2[C@@H]3[C@H](O)C[C@@H]4C[C@@H](NCCN)CC[C@]4(C)[C@H]3CC[C@]12C [Compound 415]		+	> 1	vascular reactivity (capillary regression) ([1]; 0.001 μg applied): 0; vascular reactivity (capillary regression) ([1]; 0.01 μg applied): +; vascular reactivity (capillary regression) ([1]; 0.1 μg applied): +; effect on chick embryo vessels / blood [1]: especially active
COC(=O)CC[C@@H](C)[C@H]1CC[C@H]2[C@@H]3CC[C@@H]4C[C@H](NCCN)CC[C@]4(C)[C@H]3C[C@H](O)[C@]12C [Compound 416]	functionally similar to compound 1437		> 1	
C[C@H](CCC(=O)O)[C@H]1CC[C@H]2[C@@H]3CC[C@@H]4C[C@H](NCCN)CC[C@]4(C)[C@H]3C[C@H](O)[C@]12C [Compound 417]			> 1	
COC(=O)CC[C@@H](C)[C@H]1CC[C@H]2[C@@H]3C[C@@H](O)[C@H]4C[C@H](NCCN)CC[C@]4(C)[C@H]3CC[C@]12C [Compound 431]	functionally similar to compound 1437		> 1	
COC(=O)CC[C@@H](C)[C@H]1CC[C@H]2[C@@H]3C[C@@H](O)[C@H]4C[C@@H](NCCN)CC[C@]4(C)[C@H]3CC[C@]12C [Compound 432]	functionally similar to compound 1437		> 1	
C[C@H](CCC(=O)O)[C@H]1CC[C@H]2[C@@H]3C[C@@H](O)[C@H]4C[C@@H](NCCN)CC[C@]4(C)[C@H]3CC[C@]12C [Compound 433]	functionally similar to compound 1437		1	
COC(=O)CC[C@@H](C)[C@H]1CC[C@H]2[C@@H]3CC[C@@H]4C[C@H](NCCCNCCCCNCCCN)CC[C@]4(C)[C@H]3C[C@H](O)[C@]12C [Compound 448]			1	
C[C@H](CCC(=O)O)[C@H]1CC[C@H]2[C@@H]3CC[C@@H]4C[C@H](NCCCNCCCCNCCCN)CC[C@]4(C)[C@H]3C[C@H](O)[C@]12C [Compound 449]			> 1	
COC(=O)CC[C@@H](C)[C@H]1CC[C@H]2[C@@H]3C[C@@H](O)[C@H]4C[C@H](NCCCNCCCCNCCCN)CC[C@]4(C)[C@H]3CC[C@]12C [Compound 465]	pharmacologic activity similar to that seen for FX 3			
CC(C)CCC[C@@H](C)[C@H]1CC[C@H]2[C@@H]3[C@H](O)C[C@H]4C[C@H](N)CC[C@]4(C)[C@H]3CC[C@]12C [Compound 1363]	pharmacologic activity similar to Fraction 1			
CC(C)CCC[C@@H](C)[C@H]1CC[C@H]2[C@@H]3[C@H](O)C[C@H]4C[C@@H](N)CC[C@]4(C)[C@H]3CC[C@]12C [Compound 1364]		+		vascular reactivity (capillary regression) ([1]; 0.001 μg applied): 0; vascular reactivity (capillary regression) ([1]; 0.01 μg applied): 0; vascular reactivity (capillary regression) ([1]; 0.1 μg applied): 0; vascular reactivity (capillary regression) ([1]; 10 μg applied): +
